# Assay results reported in US9221791B2, “Metalloenzyme inhibitor compounds” (Viamet Pharmaceuticals, Inc., priority 2011, dated 2015).
# How the values were obtained:
# [1] = tested on: Puccinia recondita tritici = Puccinia triticina; experiment: Fungicidal activity vs. leaf rust on wheat plants; assay type: in vivo; details: wheat (variety Yuma) sprayed at 50 ppm, inoculated on the following day, evaluated 7-9 days later; read-out: Puccinia Rating (% Disease Control @ 50 ppm)
# From the text: D. Evaluation of Fungicidal Activity Vs. Leaf Rust (Causal Agent Puccinia recondita tritici=Puccinia triticina; Bayer Code PUCCRT). […] Each pot contained 3-8 seedlings. These plants were sprayed until wet with the formulated test compounds. The compounds were formulated at 50 ppm in 10 vol. % acetone plus 90 vol. % Triton X water (deionized water 99.99 wt %+0.01 wt % Triton X100), giving a “formulated test compound.” Formulated test compounds were applied to plants using a turn table sprayer fitted with two opposing air atomization nozzles which delivered approximately 1500 L/ha of spray volume. On the following day, the leaves were inoculated with an aqueous spore suspension of Puccinia recondita tritici and the plants were kept in high humidity overnight to permit spores to germinate and infect the leaf. The plants were then transferred to a greenhouse until disease developed on untreated control plants. Disease severity was evaluated 7-9 days later, depending on the speed of disease development. In each case of Table 3, the Puccinia rating scale is as follows: […]
# [2] = tested on: Septoria tritici (ATCC 26517); experiment: Minimum Inhibitory Concentration (MIC) (Septoria tritici), CLSI-based microdilution; assay type: cell-based; details: S. tritici ATCC 26517, 22° C. for seven days, 50% reduction in growth; for MIC: Zymoseptoria tritici, ATCC26517, 168 h, read-out: Septoria Rating (MIC)
# Description: C. Minimum Inhibitory Concentration (MIC) (Septoria tritici)
# Compounds of the present disclosure were assessed for their ability to inhibit the growth of a common strain of the fungal plant pathogen Septoria tritici (ATCC 26517) using a procedure based on a Clinical and Laboratory Standards Institute (CLSI) microdilution assay protocol for filamentous fungi.
# Stock solutions of the test compounds and standards were prepared in DMSO at 6400 μg/mL. Each stock solution was used to prepare a 2-fold dilution series ranging from 16 to 0.016 μg/mL (total of 11 compound concentrations) in RPMI-1640 (Roswell Park Memorial Institute) medium containing 3-(N-morpholino)propanesulfonic acid (MOPS) buffer and 2% DMSO. A 100 μL aliquot of the dilutions was added to columns 1 (16 μg/mL compound) through 11 (0.016 μg/mL compound) of a 96-well microtiter plate. This format was replicated in a second row of the microtiter plate. Thus, each microtiter plate could include 11 concentrations of four test or control compounds replicated twice. A 100 μL aliquot of RPMI-1640/MOPS/2% DMSO medium was added to column 12 (no compound control) of the microtiter plate.
# A fresh culture of S. tritici was used to prepare a solution of approximately 5×10^4 colony-forming units per milliliter (cfu/mL) in RPMI/MOPS medium without DMSO. A 100 µL aliquot of this solution was added to all 96 wells in the microtiter plate. […] The assay plates were incubated at 22° C. for seven days in the dark without shaking.
# In each case of Table 3 the Septoria rating scale is as follows: […]
MIC [2],Structure (SMILES),pest or weed control at 50 ppm [1],Septoria Rating (MIC) [2]
≤ 0.5 µg/mL,"OC(Cn1cnnn1)(c1ccc(F)cc1F)C(F)(F)c1ccc(CCCOCC(F)(F)F)cn1 (stereo not drawn) [Compound 45, 2-(2,4-Difluorophenyl)-1,1-difluoro-3-(1H-tetrazol-1-yl)-1-(5-(3-(2,2,2-trifluoroethoxy)propyl)pyridin-2-yl)propan-2-ol]",80 to 100%,–
1.5 to 4 µg/mL,"OC(Cn1cnnn1)(c1ccc(F)cc1F)C(F)(F)c1ccc(C(F)(F)c2ccc(C(F)(F)F)cc2)cn1 (stereo not drawn) [Compound 102, 1-(5-(difluoro(4-(trifluoromethyl)phenyl)methyl)pyridin-2-yl)-2-(2,4-difluorophenyl)-1,1-difluoro-3-(1H-tetrazol-1-yl)propan-2-ol]",80 to 100%,–
1.5 µg/mL,"OC(Cn1cnnn1)(c1ccc(F)cc1F)C(F)(F)c1ccc(-c2ccc(C(F)(F)F)s2)cn1 (stereo not drawn) [Compound 34, 2-(2,4-Difluorophenyl)-1,1-difluoro-3-(1H-tetrazol-1-yl)-1-(5-(5-(trifluoromethyl)thiophen-2-yl)pyridin-2-yl)propan-2-ol]",80 to 100%,–
≤ 0.5 µg/mL,"O=C(c1ccc(OCC(F)(F)F)cc1)c1ccc(C(F)(F)C(O)(Cn2cnnn2)c2ccc(F)cc2F)nc1 (stereo not drawn) [Compound 68, (6-(2-(2,4-Difluorophenyl)-1,1-difluoro-2-hydroxy-3-(1H-tetrazol-1-yl)propyl)pyridin-3-yl)(4-(2,2,2-trifluoroethoxy)phenyl)methanone]",80 to 100%,–
≤ 0.5 µg/mL,"OC(Cn1cnnn1)(c1ccc(F)cc1F)C(F)(F)c1ccc(Br)cn1 (stereo not drawn) [Compound 1, 1-(5-Bromopyridin-2-yl)-2-(2,4-difluorophenyl)-1,1-difluoro-3-(1H-tetrazol-1-yl)propan-2-ol]",80 to 100%,–
≤ 0.5 µg/mL,"OC(Cn1cnnn1)(c1ccc(F)cc1F)C(F)(F)c1ccc(CC(F)(F)F)cn1 (stereo not drawn) [Compound 17, 2-(2,4-Difluorophenyl)-1,1-difluoro-3-(1H-tetrazol-1-yl)-1-(5-(2,2,2-trifluoroethyl)pyridin-2-yl)propan-2-ol]",80 to 100%,–
≤ 0.5 µg/mL,"OC(Cn1cnnn1)(c1ccc(F)cc1F)C(F)(F)c1ccc(Cc2ccc(Cl)nc2)cn1 (stereo not drawn) [Compound 97, 1-(5-((6-chloropyridin-3-yl)methyl)pyridin-2-yl)-2-(2,4-difluorophenyl)-1,1-difluoro-3-(1H-tetrazol-1-yl)propan-2-ol]",–,–
1.5 to 4 µg/mL,"OC(c1ccc(C(F)(F)F)cc1)c1ccc(C(F)(F)C(O)(Cn2cnnn2)c2ccc(F)cc2F)nc1 (stereo not drawn) [Compound 72, 2-(2,4-Difluorophenyl)-1,1-difluoro-1-(5-(hydroxy(4-(trifluoromethyl)phenyl)methyl)pyridin-2-yl)-3-(1H-tetrazol-1-yl)propan-2-ol]",–,–
1.5 µg/mL,"OC(c1cncnc1)(c1ccc(F)cc1F)C(F)(F)c1ccc(Br)cn1 (stereo not drawn) [Compound 58, 2-(5-Bromopyridin-2-yl)-1-(2,4-difluorophenyl)-2,2-difluoro-1-(pyrimidin-5-yl)ethanol]",–,–
1.5 µg/mL,"N#C/C=C/c1ccc(C(F)(F)C(O)(Cn2cnnn2)c2ccc(F)cc2F)nc1 (stereo not drawn) [Compound 3, (E)-3-(6-(2-(2,4-Difluorophenyl)-1,1-difluoro-2-hydroxy-3-(1H-tetrazol-1-yl)propyl)pyridin-3-yl)acrylonitrile]",–,–
> 4 µg/mL,"OC(Cn1cnnn1)(c1ccc(F)cc1F)C(F)(F)c1ccc(-c2cnc(Cl)nc2)cn1 (stereo not drawn) [Compound 57, 1-(5-(2-Chloropyrimidin-5-yl)pyridin-2-yl)-2-(2,4-difluorophenyl)-1,1-difluoro-3-(1H-tetrazol-1-yl)propan-2-ol]",–,–
> 4 µg/mL,"OC(Cn1cnnn1)(c1ccc(F)cc1F)C(F)(F)c1ccc(/C=C/Cn2cnnn2)cn1 (stereo not drawn) [Compound 42, (E)-1-(5-(3-(1H-Tetrazol-1-yl)prop-1-en-1-yl)pyridin-2-yl)-2-(2,4-difluorophenyl)-1,1-difluoro-3-(1H-tetrazol-1-yl)propan-2-ol]",–,–
1.5 to 4 µg/mL,"OC(Cn1cnnn1)(c1ccc(F)cc1F)C(F)(F)c1ccc(C(F)(F)c2ccc(Cl)cc2)cn1 (stereo not drawn) [Compound 74, 1-(5-((4-Chlorophenyl)difluoromethyl)pyridin-2-yl)-2-(2,4-difluorophenyl)-1,1-difluoro-3-(1H-tetrazol-1-yl)propan-2-ol]",–,–
1.5 to 4 µg/mL,"OC(Cn1cnnn1)(c1ccc(F)cc1F)C(F)(F)c1ccc(-n2nccn2)cn1 (stereo not drawn) [Compound 9, 1-(5-(2H-1,2,3-Triazol-2-yl)pyridin-2-yl)-2-(2,4-difluorophenyl)-1,1-difluoro-3-(1H-tetrazol-1-yl)propan-2-ol]",–,–
1.5 to 4 µg/mL,"OC/C=C/c1ccc(C(F)(F)C(O)(Cn2cnnn2)c2ccc(F)cc2F)nc1 (stereo not drawn) [Compound 43, (E)-3-(6-(2-(2,4-Difluorophenyl)-1,1-difluoro-2-hydroxy-3-(1H-tetrazol-1-yl)propyl)pyridin-3-yl)prop-2-en-1-ol]",–,–
1.5 to 4 µg/mL,"OC(Cn1cnnn1)(c1ccc(F)cc1F)C(F)(F)c1ccc(N2CCCCC2)cn1 (stereo not drawn) [Compound 82, 2-(2,4-Difluorophenyl)-1,1-difluoro-1-(5-(piperidin-1-yl)pyridin-2-yl)-3-(1H-tetrazol-1-yl)propan-2-ol]",–,–
> 4 µg/mL,"OC(Cc1cc[nH]n1)(c1ccc(F)cc1F)C(F)(F)c1ccc(-n2ccnn2)cn1 (stereo not drawn) [Compound 64, 1-(5-(1H-1,2,3-Triazol-1-yl)pyridin-2-yl)-2-(2,4-difluorophenyl)-1,1-difluoro-3-(1H-pyrazol-3-yl)propan-2-ol]",–,–
1.5 to 4 µg/mL,"CC(O)/C=C/c1ccc(C(F)(F)C(O)(Cn2cnnn2)c2ccc(F)cc2F)nc1 (stereo not drawn) [Compound 46, (E)-4-(6-(2-(2,4-Difluorophenyl)-1,1-difluoro-2-hydroxy-3-(1H-tetrazol-1-yl)propyl)pyridin-3-yl)but-3-en-2-ol]",–,–
> 4 µg/mL,"COC(=O)CSc1ccc(C(F)(F)C(O)(Cn2cnnn2)c2ccc(F)cc2F)nc1 (stereo not drawn) [Compound 41, Methyl 2-((6-(2-(2,4-difluorophenyl)-1,1-difluoro-2-hydroxy-3-(1H-tetrazol-1-yl)propyl)pyridin-3-yl)thio)acetate]",–,–
≤ 0.5 µg/mL,"O=C(c1ccc(C(F)(F)C(O)(Cn2cnnn2)c2ccc(F)cc2F)nc1)c1ccc(F)c(F)c1 (stereo not drawn) [Compound 70, (3,4-Difluorophenyl)(6-(2-(2,4-difluorophenyl)-1,1-difluoro-2-hydroxy-3-(1H-tetrazol-1-yl)propyl)pyridin-3-yl)methanone]",–,–
1.5 to 4 µg/mL,"OC(Cn1cnnn1)(c1ccc(F)cc1F)C(F)(F)c1ccc(-c2ccc(C(F)(F)F)nc2)cn1 (stereo not drawn) [Compound 35, 2-(2,4-Difluorophenyl)-1,1-difluoro-3-(1H-tetrazol-1-yl)-1-(6′-(trifluoromethyl)-[3,3′-bipyridin]-6-yl)propan-2-ol]",–,–
1.5 to 4 µg/mL,"OC(Cn1cnnn1)(c1ccc(Cl)cc1F)C(F)(F)c1ccccn1 (stereo not drawn) [Compound 11, 2-(4-Chloro-2-fluorophenyl)-1,1-difluoro-1-(pyridin-2-yl)-3-(1H-tetrazol-1-yl)propan-2-ol]",–,–
–,"OC(Cn1cnnn1)(c1ccc(F)cc1F)C(F)(F)c1ccc(-c2ccc(F)nc2)cn1 (stereo not drawn) [31(+), 2-(2,4-Difluorophenyl)-1,1-difluoro-1-(6′-fluoro-[3,3′-bipyridin]-6-yl)-3-(1H-tetrazol-1-yl)propan-2-ol]",–,A (≦0.5)
1.5 µg/mL,"OC(Cc1cc[nH]n1)(c1ccc(F)cc1F)C(F)(F)c1ccc(-n2nccn2)cn1 (stereo not drawn) [Compound 63, 1-(5-(2H-1,2,3-Triazol-2-yl)pyridin-2-yl)-2-(2,4-difluorophenyl)-1,1-difluoro-3-(1H-pyrazol-3-yl)propan-2-ol]",–,–
1.5 to 4 µg/mL,"OC(Cn1cnnn1)(c1ccc(F)cc1F)C(F)(F)c1ccc(N2CCOCC2)cn1 (stereo not drawn) [Compound 81, 2-(2,4-Difluorophenyl)-1,1-difluoro-1-(5-morpholinopyridin-2-yl)-3-(1H-tetrazol-1-yl)propan-2-ol]",–,–
–,"OC(Cn1cnnn1)(c1ccc(F)cc1F)C(F)(F)c1ccc(-c2ccc(Cl)nc2)cn1 (stereo not drawn) [30(+), 1-(6′-Chloro-[3,3′-bipyridin]-6-yl)-2-(2,4-difluorophenyl)-1,1-difluoro-3-(1H-tetrazol-1-yl)propan-2-ol]",–,B (>1.5-1.5)
1.5 µg/mL,"OC(Cn1cnnn1)(c1ccc(F)cc1F)C(F)(F)c1ccc(Cl)cn1 (stereo not drawn) [Compound 12, 1-(5-Chloropyridin-2-yl)-2-(2,4-difluorophenyl)-1,1-difluoro-3-(1H-tetrazol-1-yl)propan-2-ol]",–,–
